The term IC50 denotes the midpoint of a concentration-inhibition curve.

The results in this text go back to patent US12065436B2, “Cardiac sarcomere inhibitors” (Cytokinetics, Inc., priority 2018, dated 2024).

The target of this test is bovine cardiac myofibrils (full-length cardiac myosin ATPase in the native sarcomere) (Bos taurus (Bovine), UniProt Q9BE39). Kind of test: Skinned bovine cardiac myofibril ATPase assay (PK/LDH-coupled). As to conditions: Ca2+ activating to 75% of maximal rate; for CDMF75 IC15: concentration giving 15% inhibition; for IC50: read-out: CDMF75 IC50. The class given is biochemical. The procedure, abridged: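 Triton-skinned bovine left-ventricle myofibrils (1 mg/mL) in PM 12 buffer (12 mM PIPES, 2 mM MgCl2, pH 6.8) with 50 μM ATP, 0.6 mM EGTA and CaCl2 set for 50% or 75% activation. Steady-state ATPase inhibition followed by PK/LDH-coupled NADH oxidation at 340 nm.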
Sequence of bovine cardiac myofibrils (full-length cardiac myosin ATPase in the native sarcomere) (Q9BE39 whole entry): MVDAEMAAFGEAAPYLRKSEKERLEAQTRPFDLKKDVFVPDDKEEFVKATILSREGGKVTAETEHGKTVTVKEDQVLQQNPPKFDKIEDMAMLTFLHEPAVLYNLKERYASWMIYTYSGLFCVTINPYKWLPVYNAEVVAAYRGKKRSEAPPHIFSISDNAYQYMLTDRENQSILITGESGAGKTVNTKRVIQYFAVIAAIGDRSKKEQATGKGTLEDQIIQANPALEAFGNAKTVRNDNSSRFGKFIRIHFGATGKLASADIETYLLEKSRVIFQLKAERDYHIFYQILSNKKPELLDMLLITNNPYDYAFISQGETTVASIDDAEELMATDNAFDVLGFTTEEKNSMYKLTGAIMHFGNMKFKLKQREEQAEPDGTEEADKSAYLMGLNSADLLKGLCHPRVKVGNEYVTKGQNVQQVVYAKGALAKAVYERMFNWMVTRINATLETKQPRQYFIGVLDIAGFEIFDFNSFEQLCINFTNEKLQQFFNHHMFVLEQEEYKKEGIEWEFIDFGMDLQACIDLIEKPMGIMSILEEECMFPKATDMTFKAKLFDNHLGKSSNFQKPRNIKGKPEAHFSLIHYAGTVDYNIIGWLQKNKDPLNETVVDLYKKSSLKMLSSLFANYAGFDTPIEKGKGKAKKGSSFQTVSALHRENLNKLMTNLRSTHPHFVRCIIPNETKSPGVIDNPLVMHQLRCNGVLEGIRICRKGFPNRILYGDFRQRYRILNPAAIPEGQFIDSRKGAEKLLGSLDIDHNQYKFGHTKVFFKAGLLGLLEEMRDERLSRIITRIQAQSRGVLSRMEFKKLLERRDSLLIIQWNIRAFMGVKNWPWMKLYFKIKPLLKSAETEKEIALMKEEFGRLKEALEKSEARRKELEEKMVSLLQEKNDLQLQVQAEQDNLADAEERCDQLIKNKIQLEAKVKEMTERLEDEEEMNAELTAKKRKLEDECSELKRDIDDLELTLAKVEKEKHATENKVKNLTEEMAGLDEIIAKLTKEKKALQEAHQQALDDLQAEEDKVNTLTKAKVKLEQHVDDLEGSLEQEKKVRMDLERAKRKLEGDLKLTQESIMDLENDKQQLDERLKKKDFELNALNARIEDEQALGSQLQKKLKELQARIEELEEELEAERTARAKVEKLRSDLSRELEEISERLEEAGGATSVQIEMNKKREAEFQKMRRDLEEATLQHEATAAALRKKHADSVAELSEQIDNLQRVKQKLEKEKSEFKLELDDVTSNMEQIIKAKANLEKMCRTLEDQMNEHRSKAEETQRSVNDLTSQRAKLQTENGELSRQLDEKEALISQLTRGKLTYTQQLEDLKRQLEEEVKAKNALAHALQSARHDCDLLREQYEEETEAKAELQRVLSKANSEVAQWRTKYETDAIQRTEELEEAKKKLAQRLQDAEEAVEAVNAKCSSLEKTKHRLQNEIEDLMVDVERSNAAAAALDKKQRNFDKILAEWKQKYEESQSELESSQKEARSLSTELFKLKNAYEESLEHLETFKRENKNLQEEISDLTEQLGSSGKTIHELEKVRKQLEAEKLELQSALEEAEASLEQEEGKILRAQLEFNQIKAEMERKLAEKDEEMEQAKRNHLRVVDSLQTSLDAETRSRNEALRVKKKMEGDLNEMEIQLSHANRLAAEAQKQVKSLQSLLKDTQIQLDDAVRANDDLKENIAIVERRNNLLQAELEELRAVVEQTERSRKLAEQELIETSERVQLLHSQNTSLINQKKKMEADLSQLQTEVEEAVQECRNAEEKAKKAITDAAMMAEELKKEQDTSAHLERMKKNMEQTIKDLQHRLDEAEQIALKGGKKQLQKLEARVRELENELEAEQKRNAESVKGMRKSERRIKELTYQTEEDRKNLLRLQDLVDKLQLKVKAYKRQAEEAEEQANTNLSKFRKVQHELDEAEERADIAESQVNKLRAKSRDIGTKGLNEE
Sequence of bovine cardiac myofibrils (full-length cardiac myosin ATPase in the native sarcomere) (P85100 whole entry partner): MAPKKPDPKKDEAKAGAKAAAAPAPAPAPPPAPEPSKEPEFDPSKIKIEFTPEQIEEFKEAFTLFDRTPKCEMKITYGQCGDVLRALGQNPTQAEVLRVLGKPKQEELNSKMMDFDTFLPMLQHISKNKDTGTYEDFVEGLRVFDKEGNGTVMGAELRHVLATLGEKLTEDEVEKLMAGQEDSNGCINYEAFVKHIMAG
Sequence of bovine cardiac myofibrils (full-length cardiac myosin ATPase in the native sarcomere) (Q3SZE5 whole entry partner): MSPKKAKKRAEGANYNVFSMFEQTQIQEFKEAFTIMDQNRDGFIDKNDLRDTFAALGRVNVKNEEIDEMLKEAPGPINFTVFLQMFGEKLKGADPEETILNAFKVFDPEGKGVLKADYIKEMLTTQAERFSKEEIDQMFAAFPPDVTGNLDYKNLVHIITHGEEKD

Take `O=C(N[C@@H]1CCc2cc(-c3noc(C4CCC4)n3)ccc21)c1nnn(Cc2ccccc2)n1` [Compound 503, (R)-2-benzyl-N-(5-(5-cyclobutyl-1,2,4-oxadiazol-3-yl)-2,3-dihydro-1H-inden-1-yl)-2H-tetrazole-5-carboxamide]: the “CDMF75 IC15” value is 0.8 µM and the IC50 worked out at 3.4 µM.

In the case of `Cn1cnc(C(=O)NC2CCc3cc(-c4noc(C(F)F)n4)ccc32)n1` (centres unmarked) [Compound 118, N-(5-(5-(difluoromethyl)-1,2,4-oxadiazol-3-yl)-2,3-dihydro-1H-inden-1-yl)-1-methyl-1H-1,2,4-triazole-3-carboxamide], the “CDMF75 IC15” value was determined as 19.3 µM and the IC50 is > 39.2 µM.

Take `Cc1cc(C(=O)N[C@@H]2CCc3cc(-c4cc(C(F)F)on4)ccc32)ccn1` [Compound 169, (R)-N-(5-(5-(difluoromethyl)isoxazol-3-yl)-2,3-dihydro-1H-inden-1-yl)-2-methylisonicotinamide]: the “CDMF75 IC15” value stood at 0.5 µM and the IC50 is 1.8 µM.

Consider `CCc1nc(-c2ccc3c(c2)CC[C@H]3NC(=O)c2cnn(CC3(F)COC3)c2)no1` [Compound 508, (R)-N-(5-(5-ethyl-1,2,4-oxadiazol-3-yl)-2,3-dihydro-1H-inden-1-yl)-1-((3-fluorooxetan-3-yl)methyl)-1H-pyrazole-4-carboxamide], for which the “CDMF75 IC15” value worked out at 2.6 µM and the IC50 is 11.3 µM.

Take `Cc1ncc(C(=O)N[C@@H]2COc3cc(-c4noc(C(F)F)n4)ccc32)o1` [Compound 206, (S)-N-(6-(5-(difluoromethyl)-1,2,4-oxadiazol-3-yl)-2,3-dihydrobenzofuran-3-yl)-2-methyloxazole-5-carboxamide]: the “CDMF75 IC15” value turned out to be 0.7 µM and the IC50 came to 2.3 µM.

In the case of `Cc1ncoc1C(=O)N[C@@H]1COc2cc(-c3noc(C4CC4)n3)ccc21` [Compound 456, (S)-N-(6-(5-cyclopropyl-1,2,4-oxadiazol-3-yl)-2,3-dihydrobenzofuran-3-yl)-4-methyloxazole-5-carboxamide], the “CDMF75 IC15” value stood at 0.3 µM and the IC50 worked out at 1.1 µM.

Regarding `Cc1ncc(C(=O)N[C@@H]2CCc3cc(-c4noc(C(F)F)n4)ccc32)s1` [Compound 676, (R)-N-(5-(5-(difluoromethyl)-1,2,4-oxadiazol-3-yl)-2,3-dihydro-1H-inden-1-yl)-2-methylthiazole-5-carboxamide], the “CDMF75 IC15” value turned out to be 0.5 µM and the IC50 amounted to 1.8 µM.

Turning to `Cc1ncc(C(=O)N[C@@H]2CCc3cc(-c4noc(C5(C)CC5)n4)ccc32)o1` [Compound 465, (R)-2-methyl-N-(5-(5-(1-methylcyclopropyl)-1,2,4-oxadiazol-3-yl)-2,3-dihydro-1H-inden-1-yl)oxazole-5-carboxamide], the “CDMF75 IC15” value was 0.7 µM and the IC50 amounted to 2.6 µM.

`CCc1nc(-c2ccc3c(c2)CC[C@H]3NC(=O)c2cnn(CC(O)CO)c2)no1` (stereo partly drawn) [Compound 485, 1-(2,3-dihydroxypropyl)-N-((R)-5-(5-ethyl-1,2,4-oxadiazol-3-yl)-2,3-dihydro-1H-inden-1-yl)-1H-pyrazole-4-carboxamide]: the “CDMF75 IC15” value was determined as 1.2 µM and the IC50 was 4.1 µM.

Regarding `CCc1nc(-c2ccc3c(c2)CC[C@H]3NC(=O)OCC2CN(C(C)=O)C2)no1` [Compound 360, (1-acetylazetidin-3-yl)methyl (R)-(5-(5-ethyl-1,2,4-oxadiazol-3-yl)-2,3-dihydro-1H-inden-1-yl)carbamate], the “CDMF75 IC15” value is 21.6 µM and the IC50 was > 39.2 µM.

On to `COCc1nc(-c2ccc3c(c2)CC[C@H]3NC(=O)c2nonc2C)no1` [Compound 692, (R)-N-(5-(5-(methoxymethyl)-1,2,4-oxadiazol-3-yl)-2,3-dihydro-1H-inden-1-yl)-4-methyl-1,2,5-oxadiazole-3-carboxamide], for which the “CDMF75 IC15” value was determined as 1.0 µM and the IC50 turned out to be 4.6 µM.

As for `CCc1nc(-c2ccc3c(c2)CC[C@H]3NC(=O)c2cc(CO)ccc2C)no1` [Compound 651, (R)-N-(5-(5-ethyl-1,2,4-oxadiazol-3-yl)-2,3-dihydro-1H-inden-1-yl)-5-(hydroxymethyl)-2-methylbenzamide], the “CDMF75 IC15” value was 4.6 µM and the IC50 came out at 22.6 µM.

On to `[2H]C([2H])([2H])c1nc(-c2ccc3c(c2)CC[C@H]3NC(=O)c2cnn(CCOC)c2)no1` [Compound 514, (R)-1-(2-methoxyethyl)-N-(5-(5-(methyl-d3)-1,2,4-oxadiazol-3-yl)-2,3-dihydro-1H-inden-1-yl)-1H-pyrazole-4-carboxamide], for which the “CDMF75 IC15” value was determined as 2.7 µM and the 50% inhibitory concentration (IC50) is 11 µM.

In the case of `COCc1nc(-c2ccc3c(c2)CC[C@H]3NC(=O)c2cc(CO)ccn2)no1` [Compound 673, (R)-4-(hydroxymethyl)-N-(5-(5-(methoxymethyl)-1,2,4-oxadiazol-3-yl)-2,3-dihydro-1H-inden-1-yl)picolinamide], the “CDMF75 IC15” value was found to be 2.8 µM and the IC50 was found to be 13 µM.

As to `CCc1nc(-c2ccc3c(c2)CC[C@H]3NC(=O)c2ccn(C[C@@H](C)O)c(=O)c2)no1` [Compound 560, N-((R)-5-(5-ethyl-1,2,4-oxadiazol-3-yl)-2,3-dihydro-1H-inden-1-yl)-1-((R)-2-hydroxypropyl)-2-oxo-1,2-dihydropyridine-4-carboxamide], the “CDMF75 IC15” value was determined as 1.3 µM and the IC50 worked out at 4.7 µM.

For `CCc1nc(-c2ccc3c(c2)CC[C@H]3NC(=O)C(F)F)no1` [Compound 436, (R)-N-(5-(5-ethyl-1,2,4-oxadiazol-3-yl)-2,3-dihydro-1H-inden-1-yl)-2,2-difluoroacetamide], the “CDMF75 IC15” value stood at 0.6 µM and the IC50 worked out at 2.1 µM.

Take `[2H]C([2H])([2H])C(=O)N[C@@H]1COc2cc(-c3noc(C(F)F)n3)ccc21` [Compound 447, (S)-N-(6-(5-(difluoromethyl)-1,2,4-oxadiazol-3-yl)-2,3-dihydrobenzofuran-3-yl)acetamide-2,2,2-d3]: the “CDMF75 IC15” value was 1.8 µM and the IC50 was 9.3 µM.

For `O=C(N[C@@H]1CCc2cc(-c3noc(C(F)F)n3)ccc21)c1cc(CO)ccn1` [Compound 667, (R)-N-(5-(5-(difluoromethyl)-1,2,4-oxadiazol-3-yl)-2,3-dihydro-1H-inden-1-yl)-4-(hydroxymethyl)picolinamide], the “CDMF75 IC15” value amounted to 0.9 µM and the IC50 came out at 3.7 µM.

Consider `Cc1noc(-c2ccc3c(c2)CC[C@H]3NC(=O)c2cnn(C)c2C)n1` [Compound 264, (R)-1,5-dimethyl-N-(5-(3-methyl-1,2,4-oxadiazol-5-yl)-2,3-dihydro-1H-inden-1-yl)-1H-pyrazole-4-carboxamide], for which the “CDMF75 IC15” value amounted to 1.8 µM and the IC50 is 6.6 µM.

On to `CC#Cc1ccc2c(c1)CC[C@H]2NC(=O)c1ccnn1C` [Compound 452, (R)-1-methyl-N-(5-(prop-1-yn-1-yl)-2,3-dihydro-1H-inden-1-yl)-1H-pyrazole-5-carboxamide], for which the “CDMF75 IC15” value turned out to be 4.3 µM and the IC50 came out at 20.3 µM.

As for `Cc1nc(-c2ccc3c(c2)OCC3NC(=O)c2cnn(C)c2C)no1` (centres unmarked) [Compound 162, 1,5-dimethyl-N-(6-(5-methyl-1,2,4-oxadiazol-3-yl)-2,3-dihydrobenzofuran-3-yl)-1H-pyrazole-4-carboxamide], the “CDMF75 IC15” value came out at 1.6 µM and the IC50 is 6.4 µM.

With `O=C1CC[C@@H](C(=O)N[C@@H]2CCc3cc(-c4noc(C5CC5)n4)ccc32)N1` [Compound 338, (S)-N-((R)-5-(5-cyclopropyl-1,2,4-oxadiazol-3-yl)-2,3-dihydro-1H-inden-1-yl)-5-oxopyrrolidine-2-carboxamide], the “CDMF75 IC15” value was found to be 39.2 µM and the IC50 is > 39.2 µM.

`CCc1nc(-c2ccc3c(c2)CC[C@H]3NC(=O)c2ccn(CCO)c(=O)c2)no1` [Compound 559, (R)-N-(5-(5-ethyl-1,2,4-oxadiazol-3-yl)-2,3-dihydro-1H-inden-1-yl)-1-(2-hydroxyethyl)-2-oxo-1,2-dihydropyridine-4-carboxamide]: the “CDMF75 IC15” value was 1.4 µM and the IC50 stood at 5.7 µM.

In the case of `[2H]C([2H])([2H])c1noc(-c2ccc3c(c2)OC[C@H]3NC(=O)c2ccnn2C)n1` [Compound 312, (S)-1-methyl-N-(6-(3-(methyl-d3)-1,2,4-oxadiazol-5-yl)-2,3-dihydrobenzofuran-3-yl)-1H-pyrazole-5-carboxamide], the “CDMF75 IC15” value was found to be 0.7 µM and the IC50 is 2.4 µM.

`CCc1nc(-c2ccc3c(c2)CC[C@H]3NC(=O)c2coc(COC)n2)no1` [Compound 467, (R)-N-(5-(5-ethyl-1,2,4-oxadiazol-3-yl)-2,3-dihydro-1H-inden-1-yl)-2-(methoxymethyl)oxazole-4-carboxamide]: the “CDMF75 IC15” value is 2.1 µM and the IC50 was determined as 8.4 µM.

`Cc1nc(-c2ccc3c(c2)CC[C@H]3NC(=O)c2oc(C)nc2C)no1` [Compound 112, (R)-2,4-dimethyl-N-(5-(5-methyl-1,2,4-oxadiazol-3-yl)-2,3-dihydro-1H-inden-1-yl)oxazole-5-carboxamide]: the “CDMF75 IC15” value was found to be 1.5 µM and the IC50 came out at 5.2 µM.

For the compound `O=C(NC1CCc2cc(-c3noc(C(F)F)n3)ccc21)C(F)F` (centres unmarked) [Compound 1, N-(5-(5-(difluoromethyl)-1,2,4-oxadiazol-3-yl)-2,3-dihydro-1H-inden-1-yl)-2,2-difluoroacetamide], the “CDMF75 IC15” value stood at 4.5 µM and the IC50 was determined as 21.7 µM.

Turning to `CCc1nc(-c2ccc3c(c2)CC[C@H]3NC(=O)c2cnn(C(C)CO)c2)no1` (stereo partly drawn) [Compound 533, N-((R)-5-(5-ethyl-1,2,4-oxadiazol-3-yl)-2,3-dihydro-1H-inden-1-yl)-1-(1-hydroxypropan-2-yl)-1H-pyrazole-4-carboxamide], the “CDMF75 IC15” value turned out to be 1.5 µM and the half-maximal inhibitory concentration (IC50) was found to be 8.7 µM.
